Results taken from patent US4304782A, “Psychotropic deuterated derivatives of phenylhydantoin and pharmaceutical compositions comprising such derivatives” (Region Wallonne, priority 1979, dated 1981).
Entries after “also recorded” stand apart in the source; their conditions may differ.

Columns and labels:
[1] = system: convulsions caused by pentylene tetrazole; test: Protection against convulsions caused by pentylene tetrazole (PTZ) in adult female Wistar rats after oral administration; format: in vivo, rat (Wistar; set-up: key to Chi2 difference between the doses (100 and 200 mgr/kg) / Chi2 difference between the times: NS: not significant; details: for Anticonvulsive activity compared with DPH: in comparison with diphenylhydantoin; for Chi2 difference between the doses (100 and 200 mgr/kg): 100 vs 200 mgr/kg; for Chi2 difference between the times: 1 hour vs 2 hours + 4 hours; for Chi2 difference between the times / Chi2 difference between DPH and deuterated DPH: * P < 0.05, ** P < 0.01; for Protection of rats against the convulsive effect of PTZ (number of protected animals / total number of animals): PTZ 100 mgr/kg intraperitoneally
Protocol: The active substances according to the invention were tested in order to examine their activity and their effects in comparison with known diphenylhydantoin (DPH). In these tests as follows, 5-(paradeuterophenyl)-5-phenylhydantoin will be designated by DPH-d1 and 5-phenyl-d5 -5-phenylhydantoin by DPH-d5.
To examine the anticonvulsive activity of these substances, they were subjected to testing as to protection against convulsions caused by pentylene tetrazole on adult female rat (Wistar strain: 200-220 gr). One, two or four hours after oral administration of hydantoins (100 and 200 mgr/kg: solution in dimethyl sulfoxide/propylene glycol), animals have received a dose of 100 mgr/kg of pentylene tetrazole (PTZ) intraperitonally, then they were maintained under observation for 1 hour. The absence of appearance of convulsions was considered as a positive response. The results are expressed in the following table I as the ratio between the number of protected animals and the total number of animals.
The research of significant differences has been made on the following aspects: between DPH and deuterated DPH at 1 hour at doses of 100 and 200 mgr/kg, between DPH and deuterated DPH at any time and at a dose of 100 mgr/kg, between doses of 100 and 200 mgr/kg and between the times.

[2] = Accumulation in the cerebral tissue (general statement); format: in vivo; details: in comparison with diphenylhydantoin
Source text: (§1) The contents of the various tissues in DPH, DPH-d1 and DPH-d5 have been determined at two times after oral administration (male mice, female rats, titration by gaseous chromatography).
(§2) The whole results are mentioned in the following table III. The indicated values represent the ratio of active substance concentrations in the brain and blood. After oral administration, these values as well in rat as in mouse show a trend, which is marked to very marked, to be higher for deuterated DPH than for DPH itself.

[3] = Repartition in tissues (brain/blood ratio) after oral administration, mice, titration by gaseous chromatography; format: in vivo; details: mouse, 100 mg/kg, male mice 20-25gr, oral 100 mgr/kg; for Kp at 2 h: after 2 hours; for Kp at 24 h: after 24 hours
Source text: as §1, §2

[4] = Repartition in tissues (brain/blood ratio) after oral administration, rats, titration by gaseous chromatography; format: in vivo; details: female rat ± 200 gr, oral 100 mg/kg; for Kp at 1 h: after 1 hour; for Kp at 2 h: after 2 hours
Source text: as §1, §2

SMILES | Anticonvulsive activity compared with DPH [1] | Accumulation in the cerebral tissue [2] | Kp at 2 h [3] | Kp at 24 h [3] | Chi2 difference between the doses (100 and 200 mgr/kg) [1] | Chi2 difference between the times [1] | Protection of rats against the convulsive effect of PTZ (number of protected animals / total number of animals) ([1]; oral 100 mgr/kg, 1 hour) | Protection of rats against the convulsive effect of PTZ (number of protected animals / total number of animals) ([1]; oral 100 mgr/kg, 2 hours) | Protection of rats against the convulsive effect of PTZ (number of protected animals / total number of animals) ([1]; oral 100 mgr/kg, 4 hours) | Protection of rats against the convulsive effect of PTZ (number of protected animals / total number of animals) ([1]; oral 200 mgr/kg, 1 hour) | Kp at 1 h [4] | Kp at 2 h [4] | Chi2 difference between DPH and deuterated DPH ([1]; at 1 hour, 100 mgr/kg) | Chi2 difference between DPH and deuterated DPH ([1]; at 1 hour, 200 mgr/kg) | Chi2 difference between DPH and deuterated DPH ([1]; at any time, 100 mgr/kg) | Anticonvulsive activity compared with DPH ([1]; listed as (R,S)-5-phenyl-d5 -5-phenylhydantoin)
[2H]c1c([2H])c([2H])c(C2(c3c([2H])c([2H])c([2H])c([2H])c3[2H])NC(=O)NC2=O)c([2H])c1[2H] [5,5-di-(phenyl-d5)-hydantoin] | higher anticonvulsive activity than diphenylhydantoin | accumulation in the cerebral tissue more favorably | – | – | – | – | – | – | – | – | – | – | – | – | – | –
O=C1NC(=O)C(c2ccccc2)(c2ccccc2)N1 [DPH, 5,5-diphenylhydantoin, reference compound] | – | – | 1.45 ± 0.1 | 2.09 ± 0.22 | NS | NS | 4/25 | 2/10 | 0/10 | 5/35 | 0.9 ± 0.13 | 5.91 ± 0.93 | – | – | – | –
[2H]c1ccc(C2(c3ccccc3)NC(=O)NC2=O)cc1 (stereo not shown) [DPH-d1, 5-(paradeuterophenyl)-5-phenylhydantoin] | better protects the animals against the convulsive effect of PTZ than DPH; also recorded: higher anticonvulsive activity | – | – | – | NS | 3.93 | 9/14 | 4/10 | 2/10 | 11/30 | 2.1 ± 0.41 | 15.5 ± 3.7 | 9.42 | 4.36 | 9.40 | –
[2H]c1c([2H])c([2H])c(C2(c3ccccc3)NC(=O)NC2=O)c([2H])c1[2H] (stereo not shown) [DPH-d5, 5-phenyl-d5-5-phenylhydantoin] | A difference in the same direction, close to the significance limit; also recorded: higher anticonvulsive activity | accumulation in the cerebral tissue more favorably | 2.35 ± 0.26 | 2.97 ± 0.3 | NS | 3.58 | 7/20 | 2/10 | 0/10 | 11/35 | 2.15 ± 0.37 | 4.49 ± 1.33 | 2.17 | 2.92 | 1.22 | higher anticonvulsive activity than diphenylhydantoin
